Type in all cases: in vivo
Test [1] concerns Yellow Fever Mosquito (Aedes aegypti, AEDSAE). Description: Bioassay on Yellow Fever Mosquito (YFM), 96-well plate larval assay. The settings on record: Species YFM (Yellow Fever Mosquito). In a few lines:
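Each well was scored for mortality after 3 days at room temperature under a non-evaporative lid. Test molecules came from DMSO masters (4000 ppm stock) diluted with water/acetone 90:10 and dispensed into six replicate plates, which were then infested with roughly 1-day-old larvae in liver-powder water.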

The test system of test [2] is Beet Armyworm (Spodoptera exigua, LAPHEG). Description: Bioassay on Beet Armyworm (BAW), 128-well diet tray assay. The note with it: Species BAW (Beet Armyworm), read-out: BAW (Biological Results, rating). The gist of the method: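 Second-instar larvae, one to five per well, placed on artificial diet surface-treated with 50 μg/cm^2 compound applied in 90:10 acetone-water and dried. Held 5–7 days at 25° C., 14:10 light-dark. Percent mortality recorded per well and averaged over eight wells.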

The test system of test [3] is Cabbage Looper (Trichoplusia ni, TRIPNI). Description: Bioassay on Cabbage Looper (CL), 128-well diet tray assay. The note with it: Trichoplusia ni; Species CL (Cabbage Looper); read-out: CL (Biological Results, rating). The gist of the method: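 Using eight wells per molecule, artificial diet was dosed at 50 μg/cm^2 with compound in 90:10 acetone-water and dried before one to five second-instar larvae were added per well. Covered vented trays were kept at 25° C. with 14:10 light-dark for five to seven days, then per-well percent mortality was recorded and averaged.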

As to `O=C(Nc1ccc(F)cc1F)c1cc(NC(=O)[C@@H]2[C@@H](c3cc(Cl)c(Cl)c(Cl)c3)C2(Cl)Cl)ccc1Cl` [F282, 2-Chloro-5-((1S,3S)-2,2-dichloro-3-(3,4,5-trichlorophenyl)cyclopropane-1-carboxamido)-N-(2,4-difluorophenyl)benzamide], the “YFM (Biological Results, rating)” value in test [1] was “A (80-100)”. Further, the pest or weed control at 50 µg/cm2 in test [2] and in test [3] was 50 to 100% in each case.

Take `Cc1cc(N)ccc1NC(=O)c1cc(NC(=O)[C@H]2[C@H](c3cc(Cl)cc(Cl)c3)C2(Cl)Cl)ccc1Cl` [F283, N-(4-Amino-2-methylphenyl)-2-chloro-5-((1R,3R)-2,2-dichloro-3-(3,5-dichlorophenyl)cyclopropane-1-carboxamido)benzamide]: the “YFM (Biological Results, rating)” value in test [1] is given as “A (80-100)”. The pest or weed control at 50 µg/cm2 in test [2] and in test [3] was 50 to 100% throughout.

With `Cc1cc(N)ccc1NC(=O)c1cc(NC(=O)[C@@H]2[C@@H](c3cc(Cl)cc(Cl)c3)C2(Cl)Cl)ccc1Cl` [F284, N-(4-Amino-2-methylphenyl)-2-chloro-5-((1S,3S)-2,2-dichloro-3-(3,5-dichlorophenyl)cyclopropane-1-carboxamido)benzamide], the “YFM (Biological Results, rating)” value in test [1] is “A (80-100)”. Also, the pest or weed control at 50 µg/cm2 in test [2] and in test [3] was 50 to 100% each time.

Take `Cc1cc(N)ccc1NC(=O)c1cc(NC(=O)[C@H]2[C@H](c3ccc(Cl)c(Cl)c3)C2(Cl)Cl)ccc1Cl` [F285, N-(4-Amino-2-methylphenyl)-2-chloro-5-((1R,3R)-2,2-dichloro-3-(3,4-dichlorophenyl)cyclopropane-1-carboxamido)benzamide]: the “YFM (Biological Results, rating)” value in test [1] is “A (80-100)”. The pest or weed control at 50 µg/cm2 in test [2] and in test [3] was 50 to 100% each time.

With `Cc1cc(N)ccc1NC(=O)c1cc(NC(=O)[C@H]2[C@H](c3cc(Cl)c(Cl)c(Cl)c3)C2(Cl)Cl)ccc1Cl` [F286, N-(4-Amino-2-methylphenyl)-2-chloro-5-((1R,3R)-2,2-dichloro-3-(3,4,5-trichlorophenyl)cyclopropane-1-carboxamido)benzamide], the “YFM (Biological Results, rating)” value in test [1] is recorded as “A (80-100)”. Besides, the pest or weed control at 50 µg/cm2 in test [2] and in test [3] was 50 to 100% throughout.

As to `Cc1cc(NC(=O)OC(C)(C)C)ccc1NC(=O)c1cc(NC(=O)[C@H]2[C@H](c3ccc(F)c(Cl)c3)C2(Cl)Cl)ccc1Cl` [F290, tert-Butyl (4-(2-chloro-5-((1R,3R)-2,2-dichloro-3-(3-chloro-4-fluorophenyl)cyclopropane-1-carboxamido)benzamido)-3-methylphenyl)carbamate], the “YFM (Biological Results, rating)” value in test [1] is recorded as “A (80-100)”. Further, the pest or weed control at 50 µg/cm2 in test [2] and in test [3] was 50 to 100% in each case.

For the molecule `Cc1cc(N)ccc1NC(=O)c1cc(NC(=O)[C@H]2[C@H](c3ccc(F)c(Cl)c3)C2(Cl)Cl)ccc1Cl` [F291, N-(4-Amino-2-methylphenyl)-2-chloro-5-((1R,3R)-2,2-dichloro-3-(3-chloro-4-fluorophenyl)cyclopropane-1-carboxamido)benzamide], in test [1], the “YFM (Biological Results, rating)” value is reported as “A (80-100)”. The pest or weed control at 50 µg/cm2 in test [2] and in test [3] was 50 to 100% in each case.

With `O=C(Nc1ncc(F)cc1F)c1cc(NC(=O)[C@H]2[C@H](c3ccc(Cl)c(Cl)c3)C2(Cl)Cl)ccc1Cl` [F310, 2-Chloro-5-((1R,3R)-2,2-dichloro-3-(3,4-dichlorophenyl)cyclopropane-1-carboxamido)-N-(3,5-difluoropyridin-2-yl)benzamide], in test [1], the “YFM (Biological Results, rating)” value is given as “A (80-100)”. For the same molecule, the pest or weed control at 50 µg/cm2 in test [2] and in test [3] was 50 to 100% each time.

Take `O=C(Nc1ncc(F)cc1F)c1cc(NC(=O)[C@H]2[C@H](c3cc(Cl)c(Cl)c(Cl)c3)C2(Cl)Cl)ccc1Cl` [F311, 2-Chloro-5-((1R,3R)-2,2-dichloro-3-(3,4,5-trichlorophenyl)cyclopropane-1-carboxamido)-N-(3,5-difluoropyridin-2-yl)benzamide]: the “YFM (Biological Results, rating)” value in test [1] is “A (80-100)”. The pest or weed control at 50 µg/cm2 in test [2] and in test [3] was 50 to 100% each time.

As for `Nc1c(F)ccc(NC(=O)c2cc(NC(=O)[C@H]3[C@H](c4cc(Cl)cc(Cl)c4)C3(Cl)Cl)ccc2Cl)c1F` [F313, N-(3-Amino-2,4-difluorophenyl)-2-chloro-5-((1R,3R)-2,2-dichloro-3-(3,5-dichlorophenyl)cyclopropane-1-carboxamido)benzamide], the “YFM (Biological Results, rating)” value in test [1] is on record as “A (80-100)”. The pest or weed control at 50 µg/cm2 in test [2] and in test [3] was 50 to 100% in each case.

For `Nc1c(F)ccc(NC(=O)c2cc(NC(=O)[C@H]3[C@H](c4ccc(Cl)c(Cl)c4)C3(Cl)Cl)ccc2Cl)c1F` [F314, N-(3-Amino-2,4-difluorophenyl)-2-chloro-5-((1R,3R)-2,2-dichloro-3-(3,4-dichlorophenyl)cyclopropane-1-carboxamido)benzamide], in test [1], the “YFM (Biological Results, rating)” value is on record as “A (80-100)”. For the same molecule, the pest or weed control at 50 µg/cm2 in test [2] and in test [3] was 50 to 100% in each case.

For the molecule `Nc1c(F)ccc(NC(=O)c2cc(NC(=O)[C@H]3[C@H](c4cc(Cl)c(Cl)c(Cl)c4)C3(Cl)Cl)ccc2Cl)c1F` [F315, N-(3-Amino-2,4-difluorophenyl)-2-chloro-5-((1R,3R)-2,2-dichloro-3-(3,4,5-trichlorophenyl)cyclopropane-1-carboxamido)benzamide], the “YFM (Biological Results, rating)” value in test [1] is recorded as “A (80-100)”. Further, the pest or weed control at 50 µg/cm2 in test [2] and in test [3] was 50 to 100% throughout.

Take `O=C(Nc1ncc(F)cc1F)c1cc(NC(=O)[C@H]2[C@H](c3ccc(F)c(Cl)c3)C2(Cl)Cl)ccc1Cl` [F316, 2-Chloro-5-((1R,3R)-2,2-dichloro-3-(3-chloro-4-fluorophenyl)cyclopropane-1-carboxamido)-N-(3,5-difluoropyridin-2-yl)benzamide]: the “YFM (Biological Results, rating)” value in test [1] is listed as “A (80-100)”. In addition, the pest or weed control at 50 µg/cm2 in test [2] and in test [3] was 50 to 100% in each case.

On to `Nc1c(F)ccc(NC(=O)c2cc(NC(=O)[C@H]3[C@H](c4ccc(F)c(Cl)c4)C3(Cl)Cl)ccc2Cl)c1F` [F317, N-(3-Amino-2,4-difluorophenyl)-2-chloro-5-((1R,3R)-2,2-dichloro-3-(3-chloro-4-fluorophenyl)cyclopropane-1-carboxamido)benzamide], for which the “YFM (Biological Results, rating)” value in test [1] is listed as “A (80-100)”. Also, the pest or weed control at 50 µg/cm2 in test [2] and in test [3] was 50 to 100% each time.

`Nc1cc(C(F)(F)F)cc(NC(=O)c2cc(NC(=O)C3C(c4cc(Cl)cc(Cl)c4)C3(Cl)Cl)ccc2Cl)n1` (stereo not drawn) [F328, N-(6-Amino-4-(trifluoromethyl)pyridin-2-yl-2-chloro-5-(trans-2,2-dichloro-3-(3,5-dichlorophenyl)cyclopropane-1-carboxamido)benzamide]: in test [1], the “YFM (Biological Results, rating)” value is “A (80-100)”. Moreover, the pest or weed control at 50 µg/cm2 in test [2] and in test [3] was 50 to 100% each time.

Turning to `Nc1cc(NC(=O)c2cc(NC(=O)[C@H]3[C@H](c4cc(Cl)cc(Cl)c4)C3(Cl)Cl)ccc2Cl)c(F)cc1F` [F353, N-(5-Amino-2,4-difluorophenyl)-2-chloro-5-((1R,3R)-2,2-dichloro-3-(3,5-dichlorophenyl)cyclopropane-1-carboxamido)benzamide], the “YFM (Biological Results, rating)” value in test [1] is “A (80-100)”. For the same molecule, the pest or weed control at 50 µg/cm2 in test [2] and in test [3] was 50 to 100% in each case.

As for `Nc1cc(NC(=O)c2cc(NC(=O)[C@H]3[C@H](c4ccc(Cl)c(Cl)c4)C3(Cl)Cl)ccc2Cl)c(F)cc1F` [F354, N-(5-Amino-2,4-difluorophenyl)-2-chloro-5-((1R,3R)-2,2-dichloro-3-(3,4-dichlorophenyl)cyclopropane-1-carboxamido)benzamide], the “YFM (Biological Results, rating)” value in test [1] was “A (80-100)”. The pest or weed control at 50 µg/cm2 in test [2] and in test [3] was 50 to 100% throughout.

With `O=C(Nc1cncc([N+](=O)[O-])c1)c1cc(NC(=O)[C@H]2[C@H](c3cc(Cl)cc(Cl)c3)C2(Cl)Cl)ccc1Cl` [F358, 2-Chloro-5-((1R,3R)-2,2-dichloro-3-(3,5-dichlorophenyl)cyclopropane-1-carboxamido)-N-(5-nitropyridin-3-yl)benzamide], the “YFM (Biological Results, rating)” value in test [1] was “A (80-100)”. Moreover, the pest or weed control at 50 µg/cm2 in test [2] and in test [3] was 50 to 100% throughout.

As for `O=C(Nc1cncc([N+](=O)[O-])c1)c1cc(NC(=O)[C@H]2[C@H](c3ccc(Cl)c(Cl)c3)C2(Cl)Cl)ccc1Cl` [F359, 2-Chloro-5-((1R,3R)-2,2-dichloro-3-(3,4-dichlorophenyl)cyclopropane-1-carboxamido)-N-(5-nitropyridin-3-yl)benzamide], the “YFM (Biological Results, rating)” value in test [1] is “A (80-100)”. Also, the pest or weed control at 50 µg/cm2 in test [2] and in test [3] was 50 to 100% throughout.

Take `Nc1c(F)cc(F)cc1NC(=O)c1cc(NC(=O)[C@H]2[C@H](c3cc(Cl)cc(Cl)c3)C2(Cl)Cl)ccc1Cl` [F360, N-(2-Amino-3,5-difluorophenyl)-2-chloro-5-((1R,3R)-2,2-dichloro-3-(3,5-dichlorophenyl)cyclopropane-1-carboxamido)benzamide]: the “YFM (Biological Results, rating)” value in test [1] is reported as “A (80-100)”. Further, the pest or weed control at 50 µg/cm2 in test [2] and in test [3] was 50 to 100% each time.

The values are drawn from patent publication US10219516B2, “Molecules having pesticidal utility, and intermediates, compositions, and processes, related thereto” (priority 2015, dated 2019).
